Laboratory results from patent US10487078B2, “Compositions and methods of targeting mutant K-RAS” (NantBio, Inc., priority 2015, dated 2019).

Molecular target: K-ras G12V (GTP) (Homo sapiens, UniProt P01116, G12V)
Test: SPR assay (surface plasmon resonance)
Assay type: binding
Conditions: 25° C., 8% DMSO
Method: (§1) Selected compounds were also tested for selective binding to wild type and mutant forms of K-ras in the active and non-active state using surface plasmon resonance, and exemplary results are shown in Table 4.
(§2) The running buffer in all surface plasmon resonance experiments was 10 mM HEPES pH 7.4, 150 mM NaCl, 0.1% (v/v) Tween-20, 1 mM MgCl2, 8% DMSO. Experiments were carried out on the SensiQ Pioneer optical biosensor. The flow rate was set at 50 μL/min and the temperature was 25° C. kRAS protein was immobilized to the Nickel-NTA charged surface of the SensiQ HisCap chip (sensiqtech.com) giving a yield of 4000 RU. Small molecules were prepared in 100% DMSO and further diluted to 8% DMSO in running buffer. The small molecules were injected using the Taylor diffusion gradient injection mode (OneStep®, see e.g., Evaluation of Taylor dispersion injections: Determining kinetic/affinity interaction constants and diffusion coefficients in label-free biosensing, John G. Quinn, Analytical Biochemistry (2011)). Buffer blanks were injected for double referencing purposes. Data processing and model fitting were performed using Qdat.

SMILES	Kd [µM]	SPR Assay G12V (GTP) Rmax
Cc1nc(C)c(C(=O)Nc2nc(-c3ccc4c(c3)CCC(=O)O4)cs2)s1 [Compound 4664]	36.8	Rmax = 143 ± 1

Molecular target: K-ras G12D (GTP) (Homo sapiens, UniProt P01116, G12D)
Test: SPR assay (surface plasmon resonance)
Assay type: binding
Conditions: 25° C., 8% DMSO
Method: as §1, §2

SMILES	Kd [µM]	SPR Assay G12D (GTP) Rmax
Cc1nc(C)c(C(=O)Nc2nc(-c3ccc4c(c3)CCC(=O)O4)cs2)s1 [Compound 4664]	4.8	Rmax = 8.73

Tested on: Akt phosphorylation in Panc1 (G12D) cells
Test: In-Cell Western Akt phosphorylation
Assay type: cell-based
Conditions: EC50, one hour treatment; read-out: In-Cell Western Akt phosporylation Panc1 (G12D)
Method: (§3) In-cell phosphorylation assays for Erk and Akt were performed on various of the compounds and exemplary results are shown in Table 3 below using […] and Panc10.05 cell lines for G12D K-ras mutants.
(§4) Cells are seeded in complete medium into black sided, clear-bottom 384-well microplates at 3000 cells/[…]/well. Plates are returned to 37° C. CO2 incubator for 18 hr. Drug is made as 200× in DMSO and diluted into medium to 10×. To each well is added 4 ul 10× test article or controls, and plates are returned to the incubator. Final assay DMSO concentration is 0.5%. After one hour, cells are fixed in formaldehyde, rinsed & permeabilized with triton X-100, and blocked with BSA/Goat serum blocking solution. Primary phospho-Akt and phospho-ERK antibodies are added and plates are incubated overnight at 4° C. Plates are rinsed with Tween-20 wash buffer and secondary antibody (Goat anti-rabbit, Thermofisher) is added. After 2 hours, plates are rinsed in Tween-20 wash buffer, and then PBS. Plates are imaged on the Celigo (Nexcelom) and cellular fluorescence is quantitated. Full inhibition of phospho-Akt is achieved with 1 uM BEZ235 (Sellekchem), while full inhibition of phospho-ERK is achieved with 1 uM MEK Inhibitor II Calbiochem). EC50 values are calculated using Graphpad Prism.

SMILES	EC50 [µM]
Cc1nc(C)c(CNc2nc(-c3ccc4c(c3)CCC(=O)N4)cs2)s1 [Compound 4856]	> 25
Cc1nc(C2CC2)sc1C(=O)Nc1nc(-c2ccc3c(c2)CCC(=O)N3)cs1 [Compound 4877]	7
Cc1nc(C)c(C(=O)Nc2nc(-c3ccc4c(c3)CCC(=O)N4Cc3ccccc3)cs2)s1 [Compound 4888]	5
Cc1nc(C)c(C(=O)N(Cc2ccccc2)c2nc(-c3ccc4c(c3)CCC(=O)N4Cc3ccccc3)cs2)s1 [Compound 4889]	> 25

Tested on: Akt phosphorylation in Panc10.05 (G12D) cells
Test: In-Cell Western Akt phosphorylation
Assay type: cell-based
Conditions: EC50, one hour treatment; read-out: In-Cell Western Akt phosporylation Panc10.05 (G12D)
Method: as §3, §4

SMILES	EC50 [µM]
Cc1nc(C)c(CNc2nc(-c3ccc4c(c3)CCC(=O)N4)cs2)s1 [Compound 4856]	> 25
Cc1nc(C2CC2)sc1C(=O)Nc1nc(-c2ccc3c(c2)CCC(=O)N3)cs1 [Compound 4877]	17
Cc1nc(C)c(C(=O)Nc2nc(-c3ccc4c(c3)CCC(=O)N4Cc3ccccc3)cs2)s1 [Compound 4888]	3
Cc1nc(C)c(C(=O)N(Cc2ccccc2)c2nc(-c3ccc4c(c3)CCC(=O)N4Cc3ccccc3)cs2)s1 [Compound 4889]	> 25

Molecular target: K-ras G12V (Homo sapiens, UniProt P01116, G12V)
Test: G-LISA Ras activation assay, 293H cells transfected with G12V mutant
Assay type: cell-based
Conditions: Table 1; G-LISA, 293H transfected, 1 hour treatment; read-out: IC50 (μM) G12V
Method: (§5) 293H cells were seeded in 6-wells at 0.6×10^6 cells per well and transfected next day with 5 μg of Ras wild-type, or G12C, G12D or G12V mutant DNA plasmid vector using transfection reagent Lipofectamine 3000. Next day cells were treated with 3.125-50 μM of Ras compounds for 1 hour. Wild-type transfected cells were subsequently treated with 100 ng/ml EGF for 2 minutes. Cells were washed once in ice-cold PBS, lysed in complete lysis buffer on ice, and processed by G-LISA according to Cytoskeleton protocol.
(§6) In-cell selectivity of the compounds presented herein against a specific K-ras mutant form can also be tested as shown in the following exemplary experiment. 293H cells were seeded in 6-wells and transfected next day with 5 μg of Ras wild-type, or G12C, G12D or G12V mutant DNA plasmid vector. Next day cells were treated with 3.125-50 μM of Ras compounds for 1 hour. Wild-type transfected cells were subsequently treated with 100 ng/ml EGF for 2 minutes. Cells were washed once in ice-cold PBS, lysed in complete lysis buffer on ice, and processed by G-LISA according to Cytoskeleton protocol. FIG. 1 depicts exemplary results.
as §5, with “In still further experiments, the inventors tested selected compounds in a G-LISA assay to compare IC50 values for wild-type and various mutant K-Ras (G12D, G12V) using the following general protocol: 293H” for “293H”

SMILES	IC50 [µM]
Cc1nc(C2CC2)sc1C(=O)Nc1nc(-c2ccc3c(c2)CCC(=O)N3)cs1 [Compound 4877]	9
Cc1nc(C)c(C(=O)Nc2nc(-c3ccc4c(c3)CCC(=O)N4Cc3ccccc3)cs2)s1 [Compound 4888]	14.5

Same assay, conditions: Table 5; IC50, 293H transfected, 1 hour treatment; read-out: G-LISA (G12V)

SMILES	IC50 [µM]
Cc1nc(C2CC2)sc1C(=O)Nc1nc(-c2ccc3c(c2)CCC(=O)N3)cs1 [Compound 4877]	9
Cc1nc(C)c(C(=O)Nc2nc(-c3ccc4c(c3)CCC(=O)N4Cc3ccccc3)cs2)s1 [Compound 4888]	14.5

Molecular target: K-ras G12D (Homo sapiens, UniProt P01116, G12D)
Test: G-LISA Ras activation assay, 293H cells transfected with G12D mutant
Assay type: cell-based
Conditions: Table 1; G-LISA, 293H transfected, 1 hour treatment; read-out: IC50 (μM) G12D
Method: as §5, §6
as §5, with “In still further experiments, the inventors tested selected compounds in a G-LISA assay to compare IC50 values for wild-type and various mutant K-Ras (G12D, G12V) using the following general protocol: 293H” for “293H”

SMILES	IC50 [µM]
Cc1nc(C)c(C(=O)Nc2nc(-c3ccc4c(c3)CCC(=O)O4)cs2)s1 [Compound 4664]	> 25
Cc1nc(C)c(CNc2nc(-c3ccc4c(c3)CCC(=O)N4)cs2)s1 [Compound 4856]	> 25
Cc1nc(C2CC2)sc1C(=O)Nc1nc(-c2ccc3c(c2)CCC(=O)N3)cs1 [Compound 4877]	6
Cc1nc(C)c(C(=O)Nc2nc(-c3ccc4c(c3)CCC(=O)N4Cc3ccccc3)cs2)s1 [Compound 4888]	6

Same assay, conditions: Table 5; IC50, 293H transfected, 1 hour treatment; read-out: G-LISA (G12D)

SMILES	IC50 [µM]
Cc1nc(C)c(C(=O)Nc2nc(-c3ccc4c(c3)CCC(=O)O4)cs2)s1 [Compound 4664]	> 25
Cc1nc(C2CC2)sc1C(=O)Nc1nc(-c2ccc3c(c2)CCC(=O)N3)cs1 [Compound 4877]	6
Cc1nc(C)c(C(=O)Nc2nc(-c3ccc4c(c3)CCC(=O)N4Cc3ccccc3)cs2)s1 [Compound 4888]	6

Tested on: Erk phosphorylation in Panc10.05 (G12D) cells
Test: In-Cell Western Erk phosphorylation
Assay type: cell-based
Conditions: EC50, one hour treatment; read-out: In-Cell Western Erk phosporylation Panc10.05 (G12D)
Method: as §3, §4

SMILES	EC50 [µM]
Cc1nc(C)c(CNc2nc(-c3ccc4c(c3)CCC(=O)N4)cs2)s1 [Compound 4856]	19
Cc1nc(C2CC2)sc1C(=O)Nc1nc(-c2ccc3c(c2)CCC(=O)N3)cs1 [Compound 4877]	3
Cc1nc(C)c(C(=O)Nc2nc(-c3ccc4c(c3)CCC(=O)N4Cc3ccccc3)cs2)s1 [Compound 4888]	2
Cc1nc(C)c(C(=O)N(Cc2ccccc2)c2nc(-c3ccc4c(c3)CCC(=O)N4Cc3ccccc3)cs2)s1 [Compound 4889]	> 25

Tested on: Erk phosphorylation in Panc1 (G12D) cells
Test: In-Cell Western Erk phosphorylation
Assay type: cell-based
Conditions: EC50, one hour treatment; read-out: In-Cell Western Erk phosporylation Panc1 (G12D)
Method: as §3, §4

SMILES	EC50 [µM]
Cc1nc(C)c(CNc2nc(-c3ccc4c(c3)CCC(=O)N4)cs2)s1 [Compound 4856]	7
Cc1nc(C2CC2)sc1C(=O)Nc1nc(-c2ccc3c(c2)CCC(=O)N3)cs1 [Compound 4877]	3
Cc1nc(C)c(C(=O)Nc2nc(-c3ccc4c(c3)CCC(=O)N4Cc3ccccc3)cs2)s1 [Compound 4888]	4
Cc1nc(C)c(C(=O)N(Cc2ccccc2)c2nc(-c3ccc4c(c3)CCC(=O)N4Cc3ccccc3)cs2)s1 [Compound 4889]	> 25

Tested on: HCT116 (G13D) cells
Test: 72 hr cell viability (CellTiterBlue)
Assay type: cell-based
Conditions: GI50, 72 hr
Method: (§7) Viability assays were performed on exemplary compounds and Table 2 below lists exemplary results for selected compounds tested on wild type (Ishikawa) and various K-ras mutants (Panc1-G12D; Panc10.05-G12D; HCT116-G13D).
(§8) Cells are counted and seeded at 1000 cells/36 ul medium/well into 384-well microplates. Cells are returned to 37° C. CO2 incubator for 18 hr. Drug is made as 200× in DMSO and diluted into medium to 10×. To each well is added 4 ul 10× drug, and plates are returned to the incubator. Final assay DMSO concentration is 0.5%. After 72 hr, 8 ul CellTiterBlue (Promega) is added to each well. After 3 hr, fluorescence (Ex550/Em590) is determined on the Victor Plate Reader (Perkin Elmer). Assay range is determined by DMSO control (100% viability) and 100 uM tamoxifen (0% viability). GI50 values are calculated using Graphpad Prism.

SMILES	IC50 [µM]
Cc1nc(C)c(C(=O)Nc2nc(-c3ccc4c(c3)CCC(=O)N4Cc3ccccc3)cs2)s1 [Compound 4888]	7
Cc1nc(C)c(C(=O)N(Cc2ccccc2)c2nc(-c3ccc4c(c3)CCC(=O)N4Cc3ccccc3)cs2)s1 [Compound 4889]	21

Tested on: Panc1 (G12D) cells
Test: 72 hr cell viability (CellTiterBlue)
Assay type: cell-based
Conditions: GI50, 72 hr
Method: as §7, §8

SMILES	IC50 [µM]
Cc1nc(C)c(CNc2nc(-c3ccc4c(c3)CCC(=O)N4)cs2)s1 [Compound 4856]	≥ 25
Cc1nc(C2CC2)sc1C(=O)Nc1nc(-c2ccc3c(c2)CCC(=O)N3)cs1 [Compound 4877]	5
Cc1nc(C)c(C(=O)Nc2nc(-c3ccc4c(c3)CCC(=O)N4Cc3ccccc3)cs2)s1 [Compound 4888]	9
Cc1nc(C)c(C(=O)N(Cc2ccccc2)c2nc(-c3ccc4c(c3)CCC(=O)N4Cc3ccccc3)cs2)s1 [Compound 4889]	≥ 25

Tested on: Ishikawa (K-Ras wild-type) cells
Test: 72 hr cell viability (CellTiterBlue)
Assay type: cell-based
Conditions: GI50, 72 hr
Method: as §7, §8

SMILES	IC50 [µM]
Cc1nc(C2CC2)sc1C(=O)Nc1nc(-c2ccc3c(c2)CCC(=O)N3)cs1 [Compound 4877]	1.2
Cc1nc(C)c(C(=O)Nc2nc(-c3ccc4c(c3)CCC(=O)N4Cc3ccccc3)cs2)s1 [Compound 4888]	5
Cc1nc(C)c(C(=O)N(Cc2ccccc2)c2nc(-c3ccc4c(c3)CCC(=O)N4Cc3ccccc3)cs2)s1 [Compound 4889]	14

Tested on: Panc10.05 (G12D) cells
Test: 72 hr cell viability (CellTiterBlue)
Assay type: cell-based
Conditions: GI50, 72 hr
Method: as §7, §8

SMILES	IC50 [µM]
Cc1nc(C)c(CNc2nc(-c3ccc4c(c3)CCC(=O)N4)cs2)s1 [Compound 4856]	≥ 25
Cc1nc(C)c(C(=O)Nc2nc(-c3ccc4c(c3)CCC(=O)N4Cc3ccccc3)cs2)s1 [Compound 4888]	4
Cc1nc(C)c(C(=O)N(Cc2ccccc2)c2nc(-c3ccc4c(c3)CCC(=O)N4Cc3ccccc3)cs2)s1 [Compound 4889]	≥ 25

Molecular target: K-Ras wild-type (Homo sapiens, UniProt P01116)
Test: G-LISA Ras activation assay, 293H cells transfected with Ras wild-type, EGF-stimulated
Assay type: cell-based
Conditions: Table 1; G-LISA, 293H transfected, 1 hour treatment, 100 ng/ml EGF; read-out: IC50 (μM) Wild-type
Method: as §5, §6
as §5, with “In still further experiments, the inventors tested selected compounds in a G-LISA assay to compare IC50 values for wild-type and various mutant K-Ras (G12D, G12V) using the following general protocol: 293H” for “293H”

SMILES	IC50 [µM]
Cc1nc(C2CC2)sc1C(=O)Nc1nc(-c2ccc3c(c2)CCC(=O)N3)cs1 [Compound 4877]	16
Cc1nc(C)c(C(=O)Nc2nc(-c3ccc4c(c3)CCC(=O)N4Cc3ccccc3)cs2)s1 [Compound 4888]	11.3

Same assay, conditions: Table 5; IC50, 293H transfected, 1 hour treatment, 100 ng/ml EGF; read-out: G-LISA (wild type)

SMILES	IC50 [µM]
Cc1nc(C2CC2)sc1C(=O)Nc1nc(-c2ccc3c(c2)CCC(=O)N3)cs1 [Compound 4877]	16
Cc1nc(C)c(C(=O)Nc2nc(-c3ccc4c(c3)CCC(=O)N4Cc3ccccc3)cs2)s1 [Compound 4888]	11.3
